Measured values published in patent US10091997B2, “Composition for inhibition of insect host sensing” (Vanderbilt University, priority 2010, dated 2018).

Legend:
AgORco = molecular target: T1, AgORco (Anopheles gambiae, UniProt Q7QCC7); assay: whole-cell patch clamp, HEK293 cells stably expressing AgORco alone; format: cell-based; details: for whole-cell currents: AgORco alone cells, clamped at −60 mV
T1 construct: expressed in transfected cells
T1 sequence (Q7QCC7 1-478): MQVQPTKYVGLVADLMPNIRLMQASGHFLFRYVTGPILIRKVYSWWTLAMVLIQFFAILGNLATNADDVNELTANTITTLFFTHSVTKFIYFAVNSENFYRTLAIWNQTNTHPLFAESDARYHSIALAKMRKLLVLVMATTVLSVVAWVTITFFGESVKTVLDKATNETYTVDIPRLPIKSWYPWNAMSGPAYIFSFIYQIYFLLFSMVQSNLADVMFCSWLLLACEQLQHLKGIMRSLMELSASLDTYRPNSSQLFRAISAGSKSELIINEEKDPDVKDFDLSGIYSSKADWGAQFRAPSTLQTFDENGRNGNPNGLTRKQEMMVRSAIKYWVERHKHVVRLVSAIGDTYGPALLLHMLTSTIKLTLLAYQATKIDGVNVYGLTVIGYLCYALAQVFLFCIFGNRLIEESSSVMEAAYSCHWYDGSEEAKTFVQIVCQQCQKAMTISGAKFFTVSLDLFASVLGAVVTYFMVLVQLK
Description: (§1) Currents from OR-expressing HEK293 cells were amplified with an Axopatch 200b Amplifier (Axon Instruments) and digitized through a Digidata 1322A (Axon Instruments). Electrophysiological data was recorded and analyzed using pCLAMP 10 (Axon Instruments). Electrodes were fabricated from quartz tubing (Sutter Instruments) and pulled to 4-6 MΩ for whole cell recording. Electrodes were filled with internal solution (120 mM KCl, 30 mM D-glucose, 10 mM HEPES, 2 mM MgCl2, 1.1 mM EGTA, and 0.1 CaCl2 (pH 7.35, 280 mOsm). External (bath) solution contained 130 mM NaCl, 34 mM D-glucose, 10 mM HEPES, 1.5 mM CaCl2, 1.3 mM KH2PO4, and 0.5 MgSO4 (pH 7.35, 300 mOsm). Compounds were diluted in external solution and locally perfused to the recording cell using Perfusion Pencil (Automate Scientific) and controlled by a ValveLink 8.2 controller (Automate Scientific). Whole cell recordings were sampled at 10 kHz and filtered at 5 kHz. Outside-out patches were obtained using 10-15MΩ electrodes pulled from standard glass capillaries (World Precision Instruments) and fire-polished with an MF-830 micro forge (Narishige). Single channel recordings were sampled at 20 kHz. Recordings were reduced to 1 kHz and low-pass filtered at 500 Hz for display and analysis using QuB (SUNY at Buffalo).
(§2) To test the hypothesis that VUAA1 directly agonized AgORco, whole-cell patch clamp responses were examined in AgORco+AgOR10 expressing cells as well HEK293 cells stably expressing AgORco alone. […] The VUAA1-dependent currents in AgORco+AgOR10 cells resembled those resulting from application of benzaldehyde, an orthosteric agonist of AgOR10 (FIG. 3C) (Wang, 2010; Carey, 2010). AgORco+AgOR10 cells were more sensitive to VUAA1 than AgORco cells, producing inward currents at −5.0 log M, a concentration at which AgORco had no response. […] To investigate the specificity of VUAA1 agonism, the inventors transiently transfected HEK cells with the AgORco orthologs of Drosophila melanogaster and Heliothis virescens, DmOR83b and HvOR2 respectively.

AgORco+AgOR10 = assay: whole-cell patch clamp, HEK293 cells expressing AgORco+AgOR10; format: cell-based, Anopheles gambiae; details: for whole-cell currents: AgORco+AgOR10 cells, clamped at −60 mV
Description: as §1, §2

[1] = molecular target: T2, rat transient receptor potential vanilloid 1 (rTRPV1) (Rattus norvegicus, UniProt O35433); assay: whole-cell patch clamp, HEK cells stably expressing rTRPV1; format: cell-based
T2 construct: expressed in transfected cells
Description: To determine the broad-spectrum specificity of VUAA1, the inventors tested VUAA1 on another non-selective cation channel, transient receptor potential vanilloid receptor 1 (TRPV1) (Caterina, 1997; Bohlen, 2010).

[2] = test system: Un-transfected HEK293 cells; assay: whole-cell patch clamp, control HEK293 cells (un-transfected or GFP alone); format: cell-based, human
Description: as §1

T2 sequence (O35433 whole entry): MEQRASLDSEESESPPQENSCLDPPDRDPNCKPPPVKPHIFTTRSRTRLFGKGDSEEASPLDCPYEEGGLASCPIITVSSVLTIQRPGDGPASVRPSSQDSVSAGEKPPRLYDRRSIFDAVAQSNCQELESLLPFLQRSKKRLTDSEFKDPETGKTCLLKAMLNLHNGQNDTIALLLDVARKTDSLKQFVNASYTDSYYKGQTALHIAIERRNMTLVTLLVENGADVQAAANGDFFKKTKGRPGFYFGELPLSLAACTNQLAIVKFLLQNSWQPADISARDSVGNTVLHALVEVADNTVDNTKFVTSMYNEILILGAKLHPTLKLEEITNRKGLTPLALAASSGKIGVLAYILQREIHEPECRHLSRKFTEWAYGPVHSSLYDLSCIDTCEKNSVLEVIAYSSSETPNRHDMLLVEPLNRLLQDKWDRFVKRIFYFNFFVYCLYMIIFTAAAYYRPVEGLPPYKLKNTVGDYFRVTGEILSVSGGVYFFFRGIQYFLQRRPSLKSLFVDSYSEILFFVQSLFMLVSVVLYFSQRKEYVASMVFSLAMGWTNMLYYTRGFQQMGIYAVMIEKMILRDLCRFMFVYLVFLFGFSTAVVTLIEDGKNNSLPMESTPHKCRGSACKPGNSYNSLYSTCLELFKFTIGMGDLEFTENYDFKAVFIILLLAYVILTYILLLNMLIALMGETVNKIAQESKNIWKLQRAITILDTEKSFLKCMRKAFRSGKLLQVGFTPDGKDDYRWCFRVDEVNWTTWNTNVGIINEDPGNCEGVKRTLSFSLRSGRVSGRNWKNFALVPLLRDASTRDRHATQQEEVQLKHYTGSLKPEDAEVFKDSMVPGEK

| SMILES | whole-cell currents (AgORco) | whole-cell currents (AgORco+AgOR10) | also measured |
| --- | --- | --- | --- |
| Nc1ncnc2c1nc(Br)n2[C@@H]1O[C@@H]2COP(=O)(O)O[C@H]2[C@H]1O [8-Br cAMP] | unable to evoke whole-cell currents | unable to evoke whole-cell currents |  |
| Nc1nc2c(nc(Br)n2[C@@H]2O[C@@H]3COP(=O)(O)O[C@H]3[C@H]2O)c(=O)[nH]1 [8-Br cGMP] | unable to evoke whole-cell currents | unable to evoke whole-cell currents |  |
| COc1cc(CNC(=O)CCCC/C=C/C(C)C)ccc1O [Capsaicin, reference compound] |  |  | whole-cell currents [1]: elicited a robust response |
| N.N.N.N.N.N.N.N.N.N.N.N.N.N.[Cl-].[Cl-].[Cl-].[Cl-].[Cl-].[Cl-].[O-2].[O-2].[Ru+3].[Ru+3].[Ru+4] [RR, ruthenium red] |  |  | reduction of VUAA1 responses (AgORco; AgORco cells, agonist VUAA1): 79.4±4.0%; reduction of VUAA1-elicited currents (AgORco+AgOR10; AgOrco+AgOR10 cells, agonist VUAA1): 68.3±2.8%; reduction of benzaldehyde-elicited currents (AgORco+AgOR10; AgOrco+AgOR10 cells, agonist benzaldehyde): 87.8±1.8% |
| O=Cc1ccccc1 [benzaldehyde, reference compound] | only AgORco+AgOR10 cells responded to BA | concentration-dependent responses | whole-cell currents in GFP alone cells ([2]; HEK cells transfected with GFP alone): no currents; whole-cell currents in control cells ([2]; control / un-transfected HEK293 cells): did not respond |
